From article PMC9466626, “Discovery of new 1H-pyrazolo[3,4-d]pyrimidine derivatives as anticancer agents targeting EGFR^WT and EGFR^T790M” (Journal of Enzyme Inhibition and Medicinal Chemistry, 2022)

System: A549 cells
Experiment: Annexin V-FITC apoptosis assay
Assay type: cell-based, human
Method: The effect of compound 12b on cell apoptosis was investigated as described in Supplementary data[59]. […]
4.1.3. Annexin V-FITC apoptosis assay.
To detect the apoptosis induced by compound 12b, a549 cells were seeded and incubated overnight and then treated with compound 12b at concentrations of 8.21 µM µM for 48 h. DMSO was chosen as the negative control. After that, the cells were collected and washed with PBS two successive times. The cells were exposed to centrifugation. Apoptosis detection kit (BD Biosciences, San Jose, CA) was used in this test. According to the manufacturer's protocol the cells were stained by Annexin V-FITC and propidium iodide (PI) in the binding buffer for 20min at room temperature in the dark. Using a flow cytometer, Annexin V-FITC and PI binding were analyzed. flowjo software was used to analyze the frequencies in all quadrants.

[1] = A549, 48 h, mean ± SEM, listed as 12 b

CC(=NNc1nc(Nc2ccccc2)nc2c1cnn2-c1ccccc1)c1ccc(Cl)cc1 [Compound 12b, 4–(2-(1–(4-Chlorophenyl)ethylidene)hydrazinyl)-N,1-diphenyl-1H-pyrazolo[3,4-d]pyrimidin-6-amine]
Apoptosis Early (Right Bottom) (A549, 48 h, mean ± SEM): 67.69% | Apoptosis Late (Right Top) (A549, 48 h, mean ± SEM): 0.64% | Necrosis (Left Top) (A549, 48 h, mean ± SEM): 0.10 ± 0.02% | Viable (Left Bottom) (A549, 48 h, mean ± SEM): 31.57 ± 4.64% | Apoptosis Early (Right Bottom) [1]: 67.69 ± 4.86 % | Apoptosis Late (Right Top) [1]: 0.64 ± 0.30% | fold decrease in the ratio of viable cells (vs untreated A549, 48 h): 3 fold | fold increase in the early apoptosis ratio (vs untreated A549, 48 h): 11 fold | fold increase in the late apoptosis ratio (vs untreated A549, 48 h): 1.5 fold
